# What was measured:
# BALB/c mice = assay: Myelopoietic activity in 5-FU-treated BALB/c mice with or without CT26 tumor implantation; type: in vivo; conditions: 5-FU 150 mg/kg i.p.
# Experimental: BALB/c mice (6-10 weeks old, 20±5 g) were obtained and kept in specific pathogen-free conditions with a controlled temperature and humidity, under a 12-h light/dark cycle, and given free access to food and water. All experiments were performed in accordance with the guidelines provided in the NIH Guide for the Care and Use of Laboratory Animals (DHHS publication No. NIH 85-23, revised 1996). CT26 murine colon adenocarcinoma and BALB/c syngenic were maintained in RPMI 1640 medium (Life technology, Grand Island, N.Y.) supplemented with 10% heat-inactivated FCS (HyClone, Logan, Utah) and 2 mM L-glutamine (Sigma, St. Louis, Mo.), and cultured at 37° C. in a humidified atmosphere containing 5% CO2. These cells were subcutaneously implanted into left flank of BALB/c mice.
# For non-tumor implanted experiments, 5-FU (150 mg/kg body weight) was intraperitoneally (i.p.) injected into BALB/c mice on day 0, and PSBS (100 or 400 mg/kg body weight) was given by oral or interperitoneal administration daily once for 5 consecutive days 6 h after 5-FU injection. Mice in control group received normal saline at the same time. While in tumor-implanted model, 1×10^6 CT26 tumor cells in PBS per mouse was s.c. injected in the left flank of mice. […]
smiles,measurement,setting,value
"O=c1[nH]cc(F)c(=O)[nH]1 [5-FU, 5-fluorouracil]",CFU-GM colony numbers,"5-FU-treated mice; 5-FU alone, single dose 150 mg/kg i.p., day 11",41±5 colonies
same,myelosuppression,"5-FU-treated mice; mouse, in vivo, ip, 150 mg/kg",apparent myelosuppression
same,number of leukocytes,"5-FU-treated mice; mouse, in vivo, ip, 150 mg/kg",significantly decreased
same,number of leukocytes,BALB/c mice,significantly reduced
